Source: ChEMBL document CHEMBL1201862, “PubChem BioAssay data set” (2004)
Values belong to the compound of their own block, whether it stands above or below them. Active and inactive are the calls of the source.

How the values were obtained:
[1] = molecular target: T1, Calpain-2 catalytic subunit (Sus scrofa, UniProt P43367); test: pig calpain II inhibitor potency, dose response, biochemical, fluorogenic peptide substrate (AID 1420); format: functional
T1 sequence (P43367 whole entry): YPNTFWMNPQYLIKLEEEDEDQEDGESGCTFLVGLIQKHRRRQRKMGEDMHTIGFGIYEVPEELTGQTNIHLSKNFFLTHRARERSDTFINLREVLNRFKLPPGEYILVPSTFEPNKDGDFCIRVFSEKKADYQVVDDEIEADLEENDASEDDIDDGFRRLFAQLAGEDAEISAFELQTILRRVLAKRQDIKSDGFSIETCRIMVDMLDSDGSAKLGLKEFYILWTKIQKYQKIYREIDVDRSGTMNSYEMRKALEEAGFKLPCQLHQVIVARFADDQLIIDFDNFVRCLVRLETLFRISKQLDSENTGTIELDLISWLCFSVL

[2] = inhibitors of Vif binding to APOBEC3G peptide, primary screen, biochemical, TR-FRET, GST-Vif 1-94, biotin-A3G peptide, dose response retest (AID 1117319); format: functional;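 further: TR-FRET signal of purified GST-Vif binding a biotinylated A3G peptide; inhibitors lower the FRET signal by blocking Vif and A3G binding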
[3] = molecular target: 26S proteasome non-ATPase regulatory subunit 14 (Homo sapiens, UniProt O00487); test: inhibition of proteasome subunit RPN11 – biochemical, fluorescence polarization, uHTS hits, confirmation (AID 602368); format: functional
[4] = molecular target: 72 kDa type IV collagenase (Homo sapiens, UniProt P08253); test: Dose Response validation of uHTS RPN11 inhibitor hits using a MMP-2 Fluorescence assay.; format: functional
Prothrombin = Prothrombin (Bos taurus, UniProt P00735); test: thrombin inhibition, dose response, biochemical, fluorescence polarization, uHTS hits (AID 602369); format: functional
Cytochrome P450 2C9 = Cytochrome P450 2C9 (Homo sapiens, UniProt P11712)
[5] = molecular target: T2, Polyadenylate-binding protein 1 (Homo sapiens, UniProt P11940); test: PABP1 MLLE–PAM2 interaction inhibitors, dose response, miRNA deadenylation inhibitor project, biochemical, fluorescence polarization, Cy5-PAM2 peptide, secondary (AID 602260); format: functional; settings: read-out: IC50_Mean
[6] = molecular target: T2, Polyadenylate-binding protein 1; test: PABP1 MLLE–PAM2 binding inhibitor potency, dose response, biochemical, fluorescence polarization, FITC-PAM2 peptide (AID 602259); format: functional; settings: read-out: IC50_Mean
[7] = inhibitors of HIV Env-driven cell fusion, dose response, cherry-pick (AID 652057); format: functional, cell-based
[8] = inhibitors of clade B AD8 Env fusion, dose response, cell-based, cherry-pick (AID 652062); format: functional;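 further: luciferase signal from cell-cell fusion driven by HIV-1 clade B AD8 Env; potency is for inhibitors of fusion seen as a drop in luminescence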
Aminopeptidase N = molecular target: T3, Aminopeptidase N (Plasmodium falciparum FcB1/Columbia, UniProt O96935); test: P. falciparum M1AAP inhibitors, biochemical, fluorogenic H-Leu-NHMec substrate, 1536-well (AID 1445); set-up: species or system Plasmodium falciparum 3D7, 3D7
T3 sequence (O96935 whole entry): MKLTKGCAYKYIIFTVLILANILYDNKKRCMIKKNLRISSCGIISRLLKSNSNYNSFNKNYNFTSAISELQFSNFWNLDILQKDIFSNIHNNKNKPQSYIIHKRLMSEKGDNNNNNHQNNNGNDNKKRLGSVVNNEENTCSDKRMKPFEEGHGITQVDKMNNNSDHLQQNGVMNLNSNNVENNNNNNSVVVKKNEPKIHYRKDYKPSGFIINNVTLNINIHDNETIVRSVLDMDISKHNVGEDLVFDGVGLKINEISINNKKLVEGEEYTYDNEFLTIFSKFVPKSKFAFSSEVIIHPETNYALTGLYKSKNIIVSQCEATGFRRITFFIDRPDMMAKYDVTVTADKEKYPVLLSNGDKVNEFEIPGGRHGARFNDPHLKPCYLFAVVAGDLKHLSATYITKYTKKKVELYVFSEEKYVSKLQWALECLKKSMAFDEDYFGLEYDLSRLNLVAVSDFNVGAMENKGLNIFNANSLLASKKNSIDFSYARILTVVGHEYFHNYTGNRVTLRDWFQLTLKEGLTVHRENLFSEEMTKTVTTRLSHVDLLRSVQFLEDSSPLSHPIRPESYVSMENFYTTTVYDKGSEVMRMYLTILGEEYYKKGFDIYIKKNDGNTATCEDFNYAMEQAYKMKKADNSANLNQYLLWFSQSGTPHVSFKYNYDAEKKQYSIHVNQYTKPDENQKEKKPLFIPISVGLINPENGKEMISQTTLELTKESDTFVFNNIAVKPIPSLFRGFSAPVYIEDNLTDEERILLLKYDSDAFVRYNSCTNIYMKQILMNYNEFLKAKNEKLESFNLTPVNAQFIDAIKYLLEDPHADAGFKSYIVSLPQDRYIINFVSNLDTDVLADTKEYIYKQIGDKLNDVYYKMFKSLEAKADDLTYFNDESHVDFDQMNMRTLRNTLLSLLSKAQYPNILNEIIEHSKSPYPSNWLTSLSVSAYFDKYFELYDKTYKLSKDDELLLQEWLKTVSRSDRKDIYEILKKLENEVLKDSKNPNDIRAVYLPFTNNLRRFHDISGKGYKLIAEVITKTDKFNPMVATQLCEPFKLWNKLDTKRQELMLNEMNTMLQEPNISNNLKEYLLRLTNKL

T2 sequence (P11940 whole entry): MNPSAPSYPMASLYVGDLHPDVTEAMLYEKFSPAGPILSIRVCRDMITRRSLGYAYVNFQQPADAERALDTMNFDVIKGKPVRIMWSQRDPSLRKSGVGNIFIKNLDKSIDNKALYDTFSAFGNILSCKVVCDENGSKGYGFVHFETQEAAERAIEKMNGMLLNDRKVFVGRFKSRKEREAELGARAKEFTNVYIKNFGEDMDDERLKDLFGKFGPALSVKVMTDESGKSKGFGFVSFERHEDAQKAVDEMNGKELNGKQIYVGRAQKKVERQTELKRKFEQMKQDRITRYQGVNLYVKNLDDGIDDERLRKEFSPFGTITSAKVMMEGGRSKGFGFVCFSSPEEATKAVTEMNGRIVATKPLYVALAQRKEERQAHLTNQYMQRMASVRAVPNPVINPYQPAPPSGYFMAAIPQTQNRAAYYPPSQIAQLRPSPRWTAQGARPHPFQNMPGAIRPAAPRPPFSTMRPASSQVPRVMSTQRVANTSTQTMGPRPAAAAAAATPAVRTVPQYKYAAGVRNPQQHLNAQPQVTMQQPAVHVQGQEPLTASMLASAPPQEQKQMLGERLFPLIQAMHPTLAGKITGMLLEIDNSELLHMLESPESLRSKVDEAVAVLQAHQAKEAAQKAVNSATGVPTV
Cytochrome P450 2C9, sequence (P11712 whole entry): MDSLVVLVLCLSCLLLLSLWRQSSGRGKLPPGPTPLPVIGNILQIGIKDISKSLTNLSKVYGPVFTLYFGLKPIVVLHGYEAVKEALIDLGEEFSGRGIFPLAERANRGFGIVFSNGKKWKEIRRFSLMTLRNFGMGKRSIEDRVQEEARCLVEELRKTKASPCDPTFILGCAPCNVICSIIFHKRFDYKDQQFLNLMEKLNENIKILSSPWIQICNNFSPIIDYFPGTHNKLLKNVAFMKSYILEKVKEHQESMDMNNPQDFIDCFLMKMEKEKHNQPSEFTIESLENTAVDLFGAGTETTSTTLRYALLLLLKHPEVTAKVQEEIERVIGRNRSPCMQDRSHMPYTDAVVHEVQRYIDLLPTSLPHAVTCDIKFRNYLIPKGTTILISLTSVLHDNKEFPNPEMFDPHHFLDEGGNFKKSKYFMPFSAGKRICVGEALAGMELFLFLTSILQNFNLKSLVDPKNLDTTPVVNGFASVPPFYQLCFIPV
26S proteasome non-ATPase regulatory subunit 14, sequence (O00487 whole entry): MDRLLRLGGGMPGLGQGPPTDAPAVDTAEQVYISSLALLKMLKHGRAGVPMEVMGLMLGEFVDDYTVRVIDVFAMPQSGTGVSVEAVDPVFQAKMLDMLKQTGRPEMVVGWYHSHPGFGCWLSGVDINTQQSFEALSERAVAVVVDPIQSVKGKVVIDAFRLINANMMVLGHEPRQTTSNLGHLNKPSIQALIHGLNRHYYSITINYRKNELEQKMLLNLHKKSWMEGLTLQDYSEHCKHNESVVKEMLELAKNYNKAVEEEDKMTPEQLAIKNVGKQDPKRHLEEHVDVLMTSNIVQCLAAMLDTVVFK
72 kDa type IV collagenase, sequence (P08253 whole entry): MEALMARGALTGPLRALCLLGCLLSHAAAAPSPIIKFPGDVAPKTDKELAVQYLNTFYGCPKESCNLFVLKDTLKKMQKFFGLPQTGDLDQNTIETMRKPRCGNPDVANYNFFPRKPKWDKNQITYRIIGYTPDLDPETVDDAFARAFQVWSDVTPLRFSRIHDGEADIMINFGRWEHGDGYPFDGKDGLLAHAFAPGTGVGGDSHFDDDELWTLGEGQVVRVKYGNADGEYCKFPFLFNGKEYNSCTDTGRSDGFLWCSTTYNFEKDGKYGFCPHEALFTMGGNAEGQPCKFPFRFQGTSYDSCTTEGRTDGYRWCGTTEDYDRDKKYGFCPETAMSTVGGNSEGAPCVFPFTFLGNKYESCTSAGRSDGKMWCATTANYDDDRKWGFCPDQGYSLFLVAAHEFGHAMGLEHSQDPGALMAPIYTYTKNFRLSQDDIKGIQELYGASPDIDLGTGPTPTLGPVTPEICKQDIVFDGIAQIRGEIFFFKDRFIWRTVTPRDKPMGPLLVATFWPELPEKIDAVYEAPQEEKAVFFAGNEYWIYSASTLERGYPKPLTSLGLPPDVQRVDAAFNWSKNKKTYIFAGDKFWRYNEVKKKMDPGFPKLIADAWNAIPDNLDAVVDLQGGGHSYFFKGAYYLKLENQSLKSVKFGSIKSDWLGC

SMILES: Cc1ccc(SCC(=O)c2c(C)nc3cc(C)ccn23)cc1
IC50 [1]: 6.79 µM (not active)

SMILES: COCCNC(=O)c1c(NC(=O)c2nc(SC)ncc2Cl)sc2c1CCCC2
IC50 [3]: 17.6 µM (active)
IC50 [4]: > 100 µM (inactive)
IC50 (Prothrombin): 50 µM (active)

SMILES: CC(c1nc(O)c2ccccc2n1)N(C)CCOc1ccc(Cl)cc1 (stereo unspecified)
AC50 [7]: 57.3 µM (active)
AC50 [8]: 28.3 µM (active)

SMILES: O=C(CN1CCC(NC(=O)c2cccc(F)c2)CC1)NCc1ccccc1F
IC50 (Aminopeptidase N): 23.2 µM (active)
IC50 [2]: > 100 µM (active)

SMILES: CCOC(=O)CSc1nc(C(C)C)nc2sc(C)c(C)c12
IC50 [1]: 2.34 µM (not active)

Results, then the compound that gave them:

IC50 [2]: > 100 µM (active)
SMILES: COc1cccc(CN2CCNC(=O)C2CC(=O)NCCn2nc(C)cc2C)c1OC (stereo unspecified)

IC50 [2]: > 100 µM (active)
AC50 (Cytochrome P450 2C9): 1.78 µM (inconclusive)
SMILES: Cc1ccc[n+](CC(=O)c2cc3ccccc3oc2=O)c1

IC50 [5]: > 66 µM (inactive)
IC50 [6]: > 66 µM (inactive)
SMILES: Cn1cc(/C=N\O)nc2c(=O)n(-c3ccccc3)c(=O)nc1-2

IC50 [2]: > 100 µM (active)
SMILES: O=S(=O)(Nc1ccc2c(c1)nc1n2CCN(Cc2ccccc2)C1)c1ccc(Cl)cc1

IC50 [1]: 4.39 µM (not active)
SMILES: O=C(N/N=C/c1cc(Br)cs1)c1c[nH]c2ccccc12
